Reference: BigSolDB 2.1

O=C(O)c1ccccc1Nc1cccc(C(F)(F)F)c1
solubility (mole fraction)
Conditions | in DMSO | in ethanol | in ethylene glycol | in isopropanol | in methanol | in n-butanol | in propylene glycol | in sec-butanol | in transcutol | in water
298.2 K | 0.226 | 0.0681 | 0.00767 | 0.0962 | 0.0439 | 0.119 | 0.0126 | 0.121 | 0.193 | 5.83e-07
303.2 K | 0.241 | 0.0747 | 0.00856 | 0.105 | 0.048 | 0.13 | 0.0139 | 0.133 | 0.211 | 8.01e-07
308.2 K | 0.256 | 0.0857 | 0.00975 | 0.116 | 0.0531 | 0.142 | 0.0153 | 0.144 | 0.229 | 1.02e-06
313.2 K | 0.27 | 0.098 | 0.0107 | 0.128 | 0.0577 | 0.157 | 0.0167 | 0.16 | 0.251 | 1.28e-06
318.2 K | 0.286 | 0.112 | 0.012 | 0.144 | 0.0629 | 0.177 | 0.0181 | 0.179 | 0.278 | 1.6e-06

Conditions | solubility (mole fraction)
in PEG-400, 298.2 K | 0.0337
in PEG-400, 303.2 K | 0.04
in PEG-400, 308.2 K | 0.0469
in PEG-400, 313.2 K | 0.054
in PEG-400, 318.2 K | 0.0616
